The text below walks through data of PubChem BioAssay (NCI).

Some test systems named below: NCI-H460 lung; SK-MEL-5 melanoma; DU-145 prostate; SR leukemia; UACC-257 melanoma; OVCAR-5 ovarian; K-562 leukemia; SF-268 CNS; SF-295 CNS; HOP-62 NSCLC.
Holding throughout (experiment): NCI anticancer screen, dose series, 48 h

Structures are written as SMILES.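 Tested at 5 concentrations; 48 h exposure; 96-well plates; endpoints linearly interpolated, else capped at highest concentration. Here, GI50 denotes the concentration required for 50% inhibition of growth. TGI denotes the concentration required for complete inhibition of growth.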

In the case of `C=C1C(=O)OC2CC(C)C3C=CC(=O)C3CC12` (configuration not stated), the TGI amounted to 9.5 µM with NCI-H460 lung; 6.04 µM in the experiment with SK-MEL-5 melanoma; 21.7 µM in the experiment with DU-145 prostate; 4.53 µM in the experiment on SR leukemia; 4.9 µM in the experiment with UACC-257 melanoma; 10.4 µM in the experiment with OVCAR-5 ovarian. The TGI was found to be 12.9 µM in the experiment with K-562 leukemia, 7.4 µM with SF-268 CNS, 28.9 µM with SF-295 CNS and 31.8 µM in the experiment on HOP-62 NSCLC.

In the case of `Cc1[nH]nc2c1N=C(c1ccccc1Cl)c1cc([N+](=O)[O-])ccc1N2`, the GI50 in the experiment on NCI-H460 lung is 0.484 µM; in the experiment on SK-MEL-5 melanoma, 0.204 µM; in the experiment with DU-145 prostate it was 0.891 µM; in the experiment on SR leukemia, 0.11 µM; in the experiment with UACC-257 melanoma it was more than 25 µM; in the experiment on OVCAR-5 ovarian, more than 25 µM. In addition, the GI50 was 0.175 µM in the experiment with K-562 leukemia, 1.14 µM in the experiment on SF-268 CNS, 0.256 µM with SF-295 CNS and 1.02 µM with HOP-62 NSCLC. In addition, the TGI with NCI-H460 lung, with SK-MEL-5 melanoma, in the experiment with DU-145 prostate, with SR leukemia, with UACC-257 melanoma and with OVCAR-5 ovarian was more than 25 µM throughout. Moreover, the TGI in the experiment with K-562 leukemia, in the experiment with SF-268 CNS and in the experiment on HOP-62 NSCLC was more than 25 µM each time.

On to `CC1(C)CC2(C)CC1CC2NC(=O)CCN1CCOCC1` (configuration not stated), for which the TGI with NCI-H460 lung, in the experiment with SK-MEL-5 melanoma, with DU-145 prostate, with SR leukemia, in the experiment on UACC-257 melanoma and in the experiment with OVCAR-5 ovarian was more than 100 µM each time. The TGI in the experiment on K-562 leukemia, with SF-268 CNS, with SF-295 CNS and in the experiment on HOP-62 NSCLC was more than 100 µM throughout.

As for `O=C(Nc1cccc(-n2cc(-c3ccncc3)c(-c3ccc(O)c(Cl)c3)n2)c1)Nc1cccc(C(F)(F)F)c1`, the GI50 was 2.64 µM in the experiment with NCI-H460 lung; 1.59 µM in the experiment with SK-MEL-5 melanoma; 3.01 µM with DU-145 prostate; 1.02 µM in the experiment with SR leukemia; 2.35 µM in the experiment on UACC-257 melanoma; 3.5 µM with OVCAR-5 ovarian. In addition, the GI50 in the experiment with K-562 leukemia was 2.69 µM; in the experiment with SF-268 CNS, 2.59 µM; in the experiment on SF-295 CNS, 1.97 µM; in the experiment with HOP-62 NSCLC, 2.75 µM. In addition, the TGI is 3.01 µM with SK-MEL-5 melanoma; 11.8 µM in the experiment on DU-145 prostate; 4.71 µM with SR leukemia; 5.48 µM in the experiment on UACC-257 melanoma; 36.3 µM in the experiment with OVCAR-5 ovarian; more than 100 µM in the experiment with K-562 leukemia. Also, the TGI with SF-268 CNS turned out to be 9.98 µM; in the experiment on SF-295 CNS, 5.47 µM; with HOP-62 NSCLC, 8.36 µM.

For the compound `CC(C)Nc1ncc2cc(Oc3ccc(F)cc3F)c(=O)n(C)c2n1`, the GI50 in the experiment with NCI-H460 lung, in the experiment on SK-MEL-5 melanoma, with DU-145 prostate, in the experiment with SR leukemia, in the experiment on UACC-257 melanoma and with OVCAR-5 ovarian was more than 25 µM each time. The GI50 in the experiment with K-562 leukemia was more than 25 µM; in the experiment with SF-268 CNS, more than 23.7 µM; in the experiment with SF-295 CNS, more than 25 µM; with HOP-62 NSCLC, more than 25 µM. The TGI in the experiment on NCI-H460 lung, with SK-MEL-5 melanoma, in the experiment on DU-145 prostate, in the experiment on SR leukemia, in the experiment with UACC-257 melanoma and with OVCAR-5 ovarian was more than 25 µM in each case. Moreover, the TGI in the experiment with K-562 leukemia, in the experiment on SF-268 CNS, with SF-295 CNS and in the experiment with HOP-62 NSCLC was more than 25 µM each time.

Take `CCOC(=O)Nc1nc2c(C)cccc2s1`: the GI50 in the experiment on NCI-H460 lung is 70.8 µM; with SK-MEL-5 melanoma, 28 µM; in the experiment on DU-145 prostate, 51.1 µM; with SR leukemia it was 73.3 µM; in the experiment on UACC-257 melanoma, 39.8 µM; in the experiment with OVCAR-5 ovarian, 66.8 µM. Besides, the GI50 is 34.7 µM with K-562 leukemia, 55.3 µM in the experiment on SF-268 CNS, 27.2 µM in the experiment on SF-295 CNS and more than 100 µM in the experiment with HOP-62 NSCLC. Also, the TGI with NCI-H460 lung was more than 100 µM; with SK-MEL-5 melanoma, 91.5 µM; with DU-145 prostate, more than 100 µM; in the experiment on SR leukemia it was more than 100 µM; in the experiment on UACC-257 melanoma it was more than 100 µM; in the experiment with OVCAR-5 ovarian, more than 100 µM. The TGI in the experiment on K-562 leukemia, in the experiment with SF-268 CNS, in the experiment with SF-295 CNS and in the experiment with HOP-62 NSCLC was more than 100 µM each time.

Take `C=CC1=C(C)C2=NC1=CC1=NC(=CC3=C(C)C4=C(O)C(C(=O)OC)C(=C5NC(=C2)C(C)C5CCC(=O)OC)C4=N3)C(CC)=C1C` (configuration not stated): the TGI in the experiment with NCI-H460 lung, with SK-MEL-5 melanoma, in the experiment on DU-145 prostate, with SR leukemia, in the experiment with UACC-257 melanoma and with OVCAR-5 ovarian was more than 100 µM throughout. The TGI with K-562 leukemia, in the experiment on SF-268 CNS, with SF-295 CNS and in the experiment on HOP-62 NSCLC was more than 100 µM in each case.

On to `CCOC(=O)c1cc(C(=O)c2cc(OC)c(OC)c(OC)c2)n2ccccc12`, for which the GI50 is 0.0772 µM in the experiment with NCI-H460 lung; 0.0409 µM in the experiment with SK-MEL-5 melanoma; 0.175 µM in the experiment with DU-145 prostate; 0.041 µM in the experiment with SR leukemia; 35.1 µM with UACC-257 melanoma; 0.813 µM in the experiment with OVCAR-5 ovarian. Moreover, the GI50 was 0.0501 µM in the experiment on K-562 leukemia, 1.12 µM in the experiment on SF-268 CNS, 0.0558 µM in the experiment on SF-295 CNS and 0.241 µM in the experiment with HOP-62 NSCLC. Further, the TGI in the experiment on NCI-H460 lung, in the experiment on SK-MEL-5 melanoma, in the experiment on DU-145 prostate, in the experiment with SR leukemia, with UACC-257 melanoma and in the experiment on OVCAR-5 ovarian was more than 100 µM each time. For the same compound, the TGI is more than 100 µM in the experiment on K-562 leukemia, more than 100 µM with SF-268 CNS, 14.6 µM with SF-295 CNS and more than 67.9 µM in the experiment with HOP-62 NSCLC.

In the case of `COc1ccccc1/C=C/C(=O)/C=C/c1ccccc1OC`, the GI50 is 2.16 µM with NCI-H460 lung; 1.5 µM in the experiment with SK-MEL-5 melanoma; 1.96 µM with DU-145 prostate; 1.18 µM in the experiment with SR leukemia; 1.69 µM in the experiment with UACC-257 melanoma; 3.16 µM in the experiment on OVCAR-5 ovarian. In addition, the GI50 in the experiment with K-562 leukemia is 2.83 µM; in the experiment on SF-268 CNS it was 1.92 µM; with SF-295 CNS, 3.74 µM; in the experiment with HOP-62 NSCLC, 3 µM. The TGI in the experiment on NCI-H460 lung was 5.64 µM; with SK-MEL-5 melanoma, 2.87 µM; in the experiment on DU-145 prostate, 4.15 µM; with SR leukemia, 8.22 µM; in the experiment on UACC-257 melanoma it was 3.72 µM; with OVCAR-5 ovarian, 6.47 µM. Besides, the TGI with K-562 leukemia is 12.4 µM; in the experiment on SF-268 CNS, 4.57 µM; with SF-295 CNS, 10.5 µM; with HOP-62 NSCLC, 6.92 µM.

With `COc1cc(OC)c(C(=O)/C=C/c2cccc(OC(C)=O)c2)cc1CC=C(C)C`, the GI50 was 6.57 µM in the experiment with NCI-H460 lung; 6.47 µM in the experiment on SK-MEL-5 melanoma; 6.18 µM in the experiment with DU-145 prostate; 1.74 µM in the experiment with SR leukemia; 10.4 µM in the experiment on UACC-257 melanoma; 11.9 µM in the experiment on OVCAR-5 ovarian. For the same compound, the GI50 was 8.56 µM in the experiment with K-562 leukemia, 7.26 µM with SF-268 CNS, 11.9 µM with SF-295 CNS and 10.4 µM in the experiment with HOP-62 NSCLC. In addition, the TGI turned out to be 17.8 µM in the experiment with NCI-H460 lung; 13.3 µM in the experiment with SK-MEL-5 melanoma; 14.6 µM with DU-145 prostate; 16.1 µM with SR leukemia; 36.8 µM in the experiment with UACC-257 melanoma; 22.5 µM in the experiment on OVCAR-5 ovarian. Besides, the TGI was more than 50 µM in the experiment with K-562 leukemia, 22.7 µM with SF-268 CNS, more than 50 µM in the experiment on SF-295 CNS and 19.6 µM in the experiment with HOP-62 NSCLC.

As to `Cc1c(N=Cc2ccc(N(CCC#N)CCC#N)cc2)c(=O)n(-c2ccccc2)n1C`, the TGI with NCI-H460 lung, with SK-MEL-5 melanoma, in the experiment with DU-145 prostate, with SR leukemia, in the experiment on UACC-257 melanoma and in the experiment on OVCAR-5 ovarian was more than 100 µM each time. Moreover, the TGI in the experiment on K-562 leukemia was more than 100 µM; in the experiment with SF-268 CNS, more than 100 µM; with SF-295 CNS, 71.6 µM; in the experiment on HOP-62 NSCLC, 86.1 µM.

Regarding `CCNCCCn1c2c(c3ccc([N+](=O)[O-])cc3c1=O)C(=O)c1cc(OC)cnc1-2`, the GI50 in the experiment on NCI-H460 lung was 0.0321 µM; in the experiment on SK-MEL-5 melanoma, 0.078 µM; in the experiment on DU-145 prostate, 0.0558 µM; in the experiment on UACC-257 melanoma, 0.157 µM; in the experiment with OVCAR-5 ovarian, 0.176 µM; in the experiment on K-562 leukemia, 0.0522 µM. Also, the results for the GI50 in the experiment on SF-268 CNS, in the experiment on SF-295 CNS and in the experiment on HOP-62 NSCLC were 0.0527 µM, 0.0421 µM and 0.107 µM, respectively. The TGI with NCI-H460 lung is 0.376 µM; with SK-MEL-5 melanoma it was 0.234 µM; in the experiment on DU-145 prostate, 1.16 µM; in the experiment with SR leukemia, 1.27 µM; in the experiment with UACC-257 melanoma, 0.92 µM; in the experiment on OVCAR-5 ovarian, 0.675 µM. The TGI turned out to be 1.65 µM with K-562 leukemia, 1.5 µM in the experiment with SF-268 CNS, 0.496 µM in the experiment on SF-295 CNS and 1.89 µM in the experiment on HOP-62 NSCLC.

As to `C[C@H](N)C(=O)N1C[C@H](CCCB(O)O)[C@](N)(C(=O)O)C1`, the GI50 in the experiment with NCI-H460 lung, in the experiment with SK-MEL-5 melanoma, in the experiment with DU-145 prostate, in the experiment on SR leukemia, with UACC-257 melanoma and in the experiment on OVCAR-5 ovarian was more than 100 µM throughout. Besides, the GI50 with K-562 leukemia, in the experiment with SF-268 CNS, with SF-295 CNS and in the experiment with HOP-62 NSCLC was more than 100 µM in each case. For the same compound, the TGI in the experiment on NCI-H460 lung, in the experiment with SK-MEL-5 melanoma, in the experiment on DU-145 prostate, in the experiment on SR leukemia, in the experiment on UACC-257 melanoma and in the experiment on OVCAR-5 ovarian was more than 100 µM each time. Moreover, the TGI in the experiment with K-562 leukemia, in the experiment with SF-268 CNS, in the experiment with SF-295 CNS and in the experiment with HOP-62 NSCLC was more than 100 µM each time.
